Reference: PubChem BioAssay AID2060605 (Molecular Pharmacology Branch, DTP, NCI, 2025)
“And” between values parts separate entries of the source, which are not always exact repeats. Equal values may be shown once.

Test system: 947758-054-R-J2-PDC spheroid growth, percent test/control
Assay: Anticancer human tumor 947758-054-R-J2-PDC patient-derived colon adenocarcinoma cell line growth inhibition [CLK]
Settings: spheroids with HUVEC and MSC; for viability, T/C: stronger effect = lower value
In short: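 Multi-cell-type spheroids combined patient-derived tumor cells with HUVEC endothelial cells and human mesenchymal stem cells. Paired agents were dosed in half-log steps down from about clinical Cmax, or from 10 microM where Cmax was unknown.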

[1] = curve of first compound, second compound 0.0316 µM
[2] = curve of first compound, second compound 0.1 µM
[3] = curve of first compound, second compound 0.316 µM
[4] = curve of first compound, second compound 1 µM
[5] = curve of first compound, second compound 3.16 µM
[6] = curve of first compound, second compound 10 µM
[7] = second compound 0.0316 µM, first compound 0.0316 µM
[8] = second compound 0.0316 µM, first compound 0.1 µM
[9] = second compound 0.0316 µM, first compound 0.316 µM
[10] = second compound 0.0316 µM, first compound 1 µM
[11] = second compound 0.1 µM, first compound 0.0316 µM
[12] = second compound 0.1 µM, first compound 0.1 µM
[13] = second compound 0.1 µM, first compound 0.316 µM
[14] = second compound 0.1 µM, first compound 1 µM
[15] = second compound 0.316 µM, first compound 0.0316 µM
[16] = second compound 0.316 µM, first compound 0.1 µM
[17] = second compound 0.316 µM, first compound 0.316 µM
[18] = second compound 0.316 µM, first compound 1 µM
[19] = second compound 1 µM, first compound 0.0316 µM
[20] = second compound 1 µM, first compound 0.1 µM
[21] = second compound 1 µM, first compound 0.316 µM
[22] = second compound 1 µM, first compound 1 µM
[23] = second compound 3.16 µM, first compound 0.0316 µM
[24] = second compound 3.16 µM, first compound 0.1 µM
[25] = second compound 3.16 µM, first compound 0.316 µM
[26] = second compound 3.16 µM, first compound 1 µM
[27] = second compound 10 µM, first compound 0.0316 µM
[28] = second compound 10 µM, first compound 0.1 µM
[29] = second compound 10 µM, first compound 0.316 µM
[30] = second compound 10 µM, first compound 1 µM
[31] = second compound 0.0316 µM, first compound 3.16 µM
[32] = second compound 0.0316 µM, first compound 10 µM
[33] = second compound 0.1 µM, first compound 3.16 µM
[34] = second compound 0.1 µM, first compound 10 µM
[35] = second compound 0.316 µM, first compound 3.16 µM
[36] = second compound 0.316 µM, first compound 10 µM
[37] = second compound 1 µM, first compound 3.16 µM
[38] = second compound 1 µM, first compound 10 µM
[39] = second compound 3.16 µM, first compound 3.16 µM
[40] = second compound 3.16 µM, first compound 10 µM
[41] = second compound 10 µM, first compound 3.16 µM
[42] = second compound 10 µM, first compound 10 µM
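Note: spheroids exposed to compounds for one week before readout.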
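Throughout, for viability, T/C: 100% = DMSO vehicle control wells.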

In the case of `CCc1c2c(nc3ccc(O)cc13)-c1cc3c(c(=O)n1C2)COC(=O)[C@]3(O)CC` + CN1CCN(c2cc(C(=O)Nc3cc4cc(-c5cnn(C)c5)ccc4cn3)ccn2)CC1, the IC50 [1] is reported as 7.83 nM, the IC50 [2] is reported as 3.27 nM and the IC50 [3] is reported as under 3.16 nM. For the same compound, the IC50 [4] was under 3.16 nM, the IC50 [5] was under 3.16 nM and the IC50 [6] was under 3.16 nM. For the same compound, the viability, T/C (second compound 0.0316 µM, first compound 0.00316 µM) was 98.9%, the viability, T/C (second compound 0.0316 µM, first compound 0.01 µM) was 32.5% and the viability, T/C [7] was 22.7%. For the same compound, the viability, T/C [8] was 16.4%, the viability, T/C [9] was 6.6% and the viability, T/C [10] was 3.27%. The viability, T/C (second compound 0.1 µM, first compound 0.00316 µM) was 51%, the viability, T/C (second compound 0.1 µM, first compound 0.01 µM) was 29.2% and the viability, T/C [11] was 19.8%. It also gave a viability, T/C [12] of 9.54%, a viability, T/C [13] of 3.86% and a viability, T/C [14] of 2.52%. It also gave a viability, T/C (second compound 0.316 µM, first compound 0.00316 µM) of 1.89%, a viability, T/C (second compound 0.316 µM, first compound 0.01 µM) of 2.41% and a viability, T/C [15] of 1.16%. The viability, T/C [16] was 1.27%, the viability, T/C [17] was 0.15% and the viability, T/C [18] was 0.45%. For the same compound, the viability, T/C (second compound 1 µM, first compound 0.00316 µM) was 0.1%, the viability, T/C (second compound 1 µM, first compound 0.01 µM) was 0.11% and the viability, T/C [19] was 0.12%. For the same compound, the viability, T/C [20] was 0.09%, the viability, T/C [21] was 1.68% and the viability, T/C [22] was 0.14%. The viability, T/C (second compound 3.16 µM, first compound 0.00316 µM) was 0.18%, the viability, T/C (second compound 3.16 µM, first compound 0.01 µM) was 0.26% and the viability, T/C [23] was 0.41%. It also gave a viability, T/C [24] of 0.63%, a viability, T/C [25] of 0.68% and a viability, T/C [26] of 1.64%. The viability, T/C (second compound 10 µM, first compound 0.00316 µM) was 0.21%, the viability, T/C (second compound 10 µM, first compound 0.01 µM) was 0.3% and the viability, T/C [27] was 0.79%. For the same compound, the viability, T/C [28] was 1.24%, the viability, T/C [29] was 1.43% and the viability, T/C [30] was 1.35%.

With `COc1cccc2c1C(=O)c1c(O)c3c(c(O)c1C2=O)CC(O)(C(=O)CO)CC3OC1CC(N)C(O)C(C)O1` (stereo not given) the viability, T/C (compound 0.0316 µM) was 94.6% and 56.2%, the viability, T/C (compound 0.1 µM) was 39.9% and 44.2% and the viability, T/C (compound 0.316 µM) was 22.5% and 26.6%. For the same compound, the viability, T/C (compound 1 µM) was 11.3%, the viability, T/C (compound 3.16 µM) was 0.28% and 0.34% and the viability, T/C (compound 10 µM) was 3.11% and 2.84%. For the same compound, the IC50 (curve of compound) was 84.9 nM and 58.5 nM.

Compound `Nc1ccn(C2OC(CO)C(O)C2(F)F)c(=O)n1` (stereo not given) + CN1CCN(c2cc(C(=O)Nc3cc4cc(-c5cnn(C)c5)ccc4cn3)ccn2)CC1 has an IC50 [1] of 33.1 nM, an IC50 [2] of under 31.6 nM and an IC50 [3] of under 31.6 nM. For the same compound, the IC50 [4] was under 31.6 nM, the IC50 [5] was under 31.6 nM and the IC50 [6] was under 31.6 nM. For the same compound, the viability, T/C [7] was 51.6%, the viability, T/C [8] was 9.51% and the viability, T/C [9] was 11.7%. For the same compound, the viability, T/C [10] was 13.8%, the viability, T/C [31] was 10.8% and the viability, T/C [32] was 6.34%. For the same compound, the viability, T/C [11] was 20.8%, the viability, T/C [12] was 6.62% and the viability, T/C [13] was 10.4%. It also gave a viability, T/C [14] of 10.6%, a viability, T/C [33] of 7.69% and a viability, T/C [34] of 7.26%. For the same compound, the viability, T/C [15] was 2.49%, the viability, T/C [16] was 1.07% and the viability, T/C [17] was 1.17%. The viability, T/C [18] was 0.85%, the viability, T/C [35] was 0.53% and the viability, T/C [36] was 3.53%. The viability, T/C [19] was 0.13%, the viability, T/C [20] was 0.13% and the viability, T/C [21] was 2.17%. For the same compound, the viability, T/C [22] was 0.08%, the viability, T/C [37] was 0.45% and the viability, T/C [38] was 0.11%. For the same compound, the viability, T/C [23] was 1.66%, the viability, T/C [24] was 0.22% and the viability, T/C [25] was 0.38%. The viability, T/C [26] was 0.21%, the viability, T/C [39] was 0.27% and the viability, T/C [40] was 0.3%. It also gave a viability, T/C [27] of 0.27%, a viability, T/C [28] of 0.28% and a viability, T/C [29] of 0.31%. For the same compound, the viability, T/C [30] was 0.32%, the viability, T/C [41] was 1.07% and the viability, T/C [42] was 0.35%.

In the case of `Nc1ccccc1NC(=O)c1ccc(CNC(=O)OCc2cccnc2)cc1` + CN1CCN(c2cc(C(=O)Nc3cc4cc(-c5cnn(C)c5)ccc4cn3)ccn2)CC1, the IC50 [1] is reported as 4620 nM, the IC50 [2] is reported as 2700 nM and the IC50 [3] is reported as under 31.6 nM. It also gave an IC50 [4] of under 31.6 nM, an IC50 [5] of under 31.6 nM and an IC50 [6] of under 31.6 nM. The viability, T/C [7] was 133%, the viability, T/C [8] was 136% and the viability, T/C [9] was 153%. It also gave a viability, T/C [10] of 166%, a viability, T/C [31] of 70.3% and a viability, T/C [32] of 8.87%. The viability, T/C [11] was 188%, the viability, T/C [12] was 178% and the viability, T/C [13] was 190%. The viability, T/C [14] was 129%, the viability, T/C [33] was 39.4% and the viability, T/C [34] was 4.71%. For the same compound, the viability, T/C [15] was 2.88%, the viability, T/C [16] was 6% and the viability, T/C [17] was 2.2%. For the same compound, the viability, T/C [18] was 0.82%, the viability, T/C [35] was 1.3% and the viability, T/C [36] was 0.07%. The viability, T/C [19] was 0.15%, the viability, T/C [20] was 0.18% and the viability, T/C [21] was 0.2%. It also gave a viability, T/C [22] of 0.12%, a viability, T/C [37] of 0.57% and a viability, T/C [38] of 2.05%. It also gave a viability, T/C [23] of 0.21%, a viability, T/C [24] of 0.63% and a viability, T/C [25] of 0.29%. The viability, T/C [26] was 0.28%, the viability, T/C [39] was 0.32% and the viability, T/C [40] was 2.87%. The viability, T/C [27] was 0.31%, the viability, T/C [28] was 0.32% and the viability, T/C [29] was 1.85%. For the same compound, the viability, T/C [30] was 0.43%, the viability, T/C [41] was 0.45% and the viability, T/C [42] was 2.2%.

With `C=CC(=O)Nc1cc(Nc2nccc(-c3cn(C)c4ccccc34)n2)c(OC)cc1N(C)CCN(C)C` the viability, T/C (compound 0.000949 µM) was 85.6% and 108%, the viability, T/C (compound 0.003 µM) was 62.3% and 94.7% and the viability, T/C (compound 0.00949 µM) was 90.8% and 103%. For the same compound, the viability, T/C (compound 0.03 µM) was 94.7% and 69.1%, the viability, T/C (compound 0.0949 µM) was 74.3% and 92.2% and the viability, T/C (compound 0.3 µM) was 87.2% and 78.5%. The IC50 (curve of compound) was over 300 nM.
